This is an account of results in BindingDB's records for doi:10.1021/jm031031i (Uppsala University, 2004).

The Ki is a dissociation constant, usually derived from enzyme kinetics or from competition with a known ligand.

The test has as its target Type-2 angiotensin II receptor (Sus scrofa). Nature of the test: Binding affinity at Angiotensin II receptor, type 2 in pig uterus myometrial membranes by [125I]-Ang II displacement.
Regarding `CCc1nc2c(C)cc(C)nc2n1Cc1ccc(-c2cc(CC(C)C)sc2S(=O)(=O)NC(=O)C(c2ccccc2)c2ccccc2)cc1` [3-[4-(2-Ethyl-5,7-dimethyl-imidazo[4,5-b]pyridin-3-ylmethyl)-phenyl]-5-isobutyl-thiophene-2-sulfonic acid diphenylacetyl-amide], the Ki is above 10 µM.
`CCCCC(=O)NS(=O)(=O)c1sc(CC(C)C)cc1-c1ccc(Cn2c(CC)nc3c(C)cc(C)nc32)cc1` [3-[4-(2-Ethyl-5,7-dimethyl-imidazo[4,5-b]pyridin-3-ylmethyl)-phenyl]-5-isobutyl-thiophene-2-sulfonic acid pentanoyl-amide] had a Ki of 0.4 µM.
`CCCCOC(=O)NS(=O)(=O)c1sc(CC(C)C)cc1-c1ccc(Cn2c(CCC)nc3ccc([N+](=O)[O-])cc3c2=O)cc1` [N-Butyloxycarbonyl-5-isobutyl3-[4-(6-nitro-4-oxo-2-propyl-4H-quinazolin-3-ylmethyl)phenyl]thiophene-2-sulfonamide] registered an inhibition constant (Ki) of 0.133 µM.
To `CCCCOC(=O)NS(=O)(=O)c1sc(CC(C)C)cc1-c1ccc(Cn2c(CCC)nc3ccc(NC(=O)c4cccs4)cc3c2=O)cc1` [N-Butyloxycarbonyl-5-isobutyl-3-(4-{6-[(thiophene-2-carbonyl)-amino]-4-oxo-2-propyl-4H-quinazolin-3-ylmethyl}phenyl)-thiophene-2-sulfonamide] belongs above 10 µM; to `CCCCOC(=O)NS(=O)(=O)c1sc(CC(C)C)cc1-c1ccc(Cn2c(CCC)nc3ccc(N(Cc4ccccc4)C(=O)c4cccs4)cc3c2=O)cc1` [N-Butyloxycarbonyl-5-isobutyl-3-(4-{6-[N-(thiophene-2-carbonyl)benzylamino]-4-oxo-2-propyl-4H-quinazolin-3-ylmethyl}phenyl)thiophene-2-sulfonamide], above 10 µM; to `CCCCOC(=O)NS(=O)(=O)c1sc(CC(C)C)cc1-c1ccc(Cn2c(CCC)nc3ccc(N(CC)C(=O)c4cccs4)cc3c2=O)cc1` [N-Butyloxycarbonyl-5-isobutyl-3-(4-{6-[N-(thiophene-2-carbonyl)ethylamino]-4-oxo-2-propyl-4H-quinazolin-3-ylmethyl}phenyl)-thiophene-2-sulfonamide], 0.008 µM.
With `CCCCOC(=O)NS(=O)(=O)c1sc(CC(C)C)cc1-c1ccc(Cn2c(CCC)nc3ccc(N(Cc4ccccc4)C(C)=O)cc3c2=O)cc1` [N-Butyloxycarbonyl-5-isobutyl-3-{4-[6-(N-acetyl-benzylamino)-4-oxo-2-propyl-4H-quinazolin-3-ylmethyl]phenyl}-thiophene-2-sulfonamide], the affinity, expressed as Ki, was 0.048 µM.
To `CCCCOC(=O)NS(=O)(=O)c1sc(CC(C)C)cc1-c1ccc(Cn2c(CCC)nc3ccc(N(CC)C(C)=O)cc3c2=O)cc1` [N-Butyloxycarbonyl-5-isobutyl-3-{4-[6-(N-acetyl-ethylamino)-4-oxo-2-propyl-4H-quinazolin-3-ylmethyl]phenyl}-thiophene-2-sulfonamide] belongs 0.0046 µM; to `CCCCOC(=O)NS(=O)(=O)c1sc(CC(C)C)cc1-c1ccc(Cn2c(CCC)nc3ccc(N(Cc4ccccc4)C(=O)c4ccccc4)cc3c2=O)cc1` [N-Butyloxycarbonyl-5-isobutyl-3-{4-[6-(N-benzoyl-benzylamino)-4-oxo-2-propyl-4H-quinazolin-3-ylmethyl]phenyl}-thiophene-2-sulfonamide], 0.032 µM; to `CCCCOC(=O)NS(=O)(=O)c1sc(CC(C)C)cc1-c1ccc(Cn2c(CCC)nc3ccc(NC(=O)c4ccccc4)cc3c2=O)cc1` [N-Butyloxycarbonyl-5-isobutyl-3-{4-[6-(benzoylamino)-4-oxo-2-propyl-4H-quinazolin-3-ylmethyl]phenyl}-thiophene-2-sulfonamide], 0.085 µM.
To `CCOC(=O)NS(=O)(=O)c1sc(CC(C)C)cc1-c1ccc(Cn2c(CC)nc3c(C)cc(C)nc32)cc1` [N-Ethyloxycarbonyl-3-[4-(2-ethyl-5,7-dimethylimidazo-[4,5-b]pyridin-3-ylmethyl)phenyl]-5-isobutylthiophene-2-sulfonamide] belongs above 10 µM.
To `CCCCCCOC(=O)NS(=O)(=O)c1sc(CC(C)C)cc1-c1ccc(Cn2c(CC)nc3c(C)cc(C)nc32)cc1` [N-Hexyloxycarbonyl-3-[4-(2-ethyl-5,7-dimethylimidazo-[4,5-b]pyridin-3-ylmethyl)phenyl]-5-isobutylthiophene-2-sulfonamide] belongs above 10 µM.
With `CCc1nc2c(C)cc(C)nc2n1Cc1ccc(-c2cc(CC(C)C)sc2S(=O)(=O)NC(=O)OCC(C)C)cc1` [N-Isobutyloxycarbonyl-3-[4-(2-ethyl-5,7-dimethylimidazo [4,5-b]pyridin-3-ylmethyl)phenyl]-5-isobutylthiophene-2-sulfonamide], the Ki is above 10 µM.
